What was measured:
[1] = target: T1, eEF2 (eukaryotic translational elongation factor 2) (Homo sapiens, UniProt P13639); test: ITC (KD […]); also SPR (KD […]), CETSA in KYSE510 and […] T cells, GTPase-Glo inhibition of purified eEF2; type: binding; parameters: eEF2-3 × Flag purified from 293 T cells
[2] = target: T1, eEF2 (eukaryotic translational elongation factor 2); test: SPR (Biacore T200); type: binding; parameters: eEF2 protein immobilized on a CM5 chip

| Kd [2] [nM] | Structure (SMILES) | Kd [1] [nM] |
| --- | --- | --- |
|  | CC(=O)O[C@@H]1C[C@H](O)[C@@]23CO[C@@H](O)[C@]1(C)[C@@H]2C[C@@H](O)[C@]1(C)[C@@H]3C(=O)[C@H](OC(C)=O)[C@@]2(C)[C@H](c3ccoc3)C[C@H]3O[C@]321 [TSN, Toosendanin] | ~16.6 |
| 54.1 | O=C(NCCN1CCCC1)c1cc(-c2ccc(CN3CCOCC3)cc2)nc2ccc(F)cc12 [DDD107498] |  |

— PMC10124032, “Toosendanin targeting eEF2 impedes Topoisomerase I & II protein translation to suppress esophageal squamous cell carcinoma growth” (Journal of Experimental & Clinical Cancer Research : CR, 2023)
